Results on 3 substances are retold here after patent US20150104466A1, “CYTOMEGALOVIRUS DISINTEGRIN-LIKE PEPTIDES” (priority 2013, published 2015).

One test has as its system HCMV strain AD169. Nature of the test: Virus entry assay: HCMV infectivity by IE gene expression (immunofluorescence). The test is classed as cell-based, Human cytomegalovirus. The following applies: NHDFs treated with peptide or antibody prior to HCMV challenge. As for the experimental part:
(§1) For CMV entry assays, subconfluent cells were grown on glass coverslips in 12-well plates. Integrin neutralizing antibodies or peptides were incubated in serum-free DMEM with cell monolayer for 30 minutes at 37° C. Cells were washed with phosphate-buffered saline (PBS) and incubated with HCMV strain AD169, MCMV Smith strain, or MCMV-GFP for 60 minutes at 37° C. Any non-penetrated virus was inactivated with low-pH citrate buffer (40 mM citric acid, 10 mM KCl, 135 mM NaCl, pH 3.0). The cells were incubated 20-24 hours at 37° C. in DMEM supplemented with 2% bovine calf serum (BCS). […] Experiments were performed in triplicate with a minimum of 1000 cells scored per coverslip. […] Cells were incubated 6 hours at 37° C. in DMEM supplemented with 10% BCS prior to lysis (100 mM sodium phosphate, 10 mM KCl, 1 mM magnesium sulfate, 0.1% NP-40, pH 7.4). β-galactosidase activity was measured by addition of o-nitrophenyl-β-D-galactopyranoside (ONPG) and the absorbance was monitored at 420 nm.
FIG. 2A presents the results of a series of assays wherein NHDFs were treated with HCMV gB disintegrin-like peptide, gB disintegrin-like Null peptide, RGD, or RGE peptide prior to HCMV challenge (as indicated in the FIG. 2A). Infectivity was determined by IE gene expression. […]

In a further test the test system is NHDF cells. Nature of the test: Cytoskeletal rearrangement in NHDF cells (actin staining with phalloidin). The test is classed as cell-based, human. The following applies: compared to buffer alone. An excerpt: gBDLD Triggers Cytoskeletal Rearrangements: β1 integrins are known inducers of broad signal transduction events. […] To test the role of gBDLD in mediating signaling events, we stimulated NHDF cells with buffer alone, gBDLD, or a known cytoskeletal reorganizer (EGF), followed by actin staining with phalloidin.

The subject of another test is MCMV. Nature of the test: Virus entry assay: MCMV infectivity (e1-positive cells). The following applies: mouse fibroblasts (murine 3T3) treated with peptide, then MCMV challenge. The test is classed as cell-based, Murine cytomegalovirus. As for the experimental part:
as §1
FIG. 4B is a histogram showing the results of an assay wherein GD25, GD25β1 and 3T3 cells were treated with β1, β3, and β1+β3 antibodies, followed by MCMV infection. As described above, infectivity was determined by scoring e1-(early protein) positive cells. […]

A further test has as its system HSV-1(KOS)gL86. Nature of the test: HSV entry assay (β-galactosidase activity). The format is cell-based, herpes simplex virus-1. The following applies: cells treated with peptide, then HSV-1 challenge. Here is the method:
For CMV entry assays, subconfluent cells were grown on glass coverslips in 12-well plates. Integrin neutralizing antibodies or peptides were incubated in serum-free DMEM with cell monolayer for 30 minutes at 37° C. Cells were washed with phosphate-buffered saline (PBS) and incubated with HCMV strain AD169, MCMV Smith strain, or MCMV-GFP for 60 minutes at 37° C. Any non-penetrated virus was inactivated with low-pH citrate buffer (40 mM citric acid, 10 mM KCl, 135 mM NaCl, pH 3.0). The cells were incubated 20-24 hours at 37° C. in DMEM supplemented with 2% bovine calf serum (BCS). Immunofluorescence analysis was performed as previously described^28 with either mouse anti-IE monoclonal antibody 1203, mouse anti-pp65 monoclonal antibody or rabbit anti-MCMV el polyclonal, followed by detection with a fluorescein-conjugated goat anti-mouse secondary or a fluorescein-conjugated goat anti-rabbit secondary antibody. Nuclei were stained with 300 nM 4′,6-diamidino-2-phenylindole (DAPI). Experiments were performed in triplicate with a minimum of 1000 cells scored per coverslip. […] Cells were incubated 6 hours at 37° C. in DMEM supplemented with 10% BCS prior to lysis (100 mM sodium phosphate, 10 mM KCl, 1 mM magnesium sulfate, 0.1% NP-40, pH 7.4). β-galactosidase activity was measured by addition of o-nitrophenyl-β-D-galactopyranoside (ONPG) and the absorbance was monitored at 420 nm.

A further test deals with HCMV AD 169. The experiment in a line: Virus binding assay: HCMV attachment to NHDF cells at 4° C. (gB ELISA). The format is cell-based, Human cytomegalovirus. The following applies: 1 mM peptide, 1:50 DE9, α2 and α6 antibodies 20 μg/mL. Here is the method: NHDF cells were grown in 96-well plates and treated with integrin-neutralizing antibodies, peptides, or heparin for 60 minutes at 4° C. Cells were then challenged with HCMV AD 169 at a multiplicity of infection (MOI) of 5 pfu/cell for 60 minutes at 4° C. Unbound virus was removed and cells were washed and fixed with 3% paraformaldehyde. Bound HCMV was detected with monoclonal antibody 27-78, horseradish peroxidase (HRP)-conjugated goat anti-mouse secondary antibody, and ImmunoPure TMB Substrate Kit (Pierce, Rockford, Ill.). Absorbance was measured at 450 nm. All experiments were performed in triplicate.
During virus infection, integrins are utilized as primary viral attachment receptors or as post-attachment (fusion-activating) or internalization receptors.^11 To determine at which step in the HCMV entry pathway integrins are functioning, cell binding (i.e., attachment) experiments were performed, as well as assays to measure viral payload delivery into the cytoplasm (internalization). For the binding assays, virus was bound at 4° C. to allow for stable virus binding, but to restrict fusion and internalization. The results are depicted in FIG. 6A. […] Attachment was measured by gB ELISA.

In a further test the test system is HCMV. The experiment in a line: Viral payload delivery: pp65 localization in fibroblasts after HCMV infection. The format is cell-based, Human cytomegalovirus. The conditions noted are these: human fibroblasts treated, then infected with HCMV. Here is the method:
as §1
Next, an assay was performed that directly measured delivery of an internal virion component. […] FIG. 6B is a histogram showing the results of a series of assays wherein human fibroblasts were treated with various integrin-blocking agents, infected with HCMV, and then assayed for viral payload as measured by pp65 localization. […]

Regarding “AVCSMAGGTAAIRAERNIIC (listed as Human cytomegalovirus) [gB disintegrin-like null peptide, null peptide containing alanine substitutions in the disintegrin-like consensus residues, reference compound]”, in the test with HCMV strain AD169, the “inhibition of HCMV infectivity compared to infectivity seen with no treatment” value was “HCMV was able to infect”.

Regarding “EGF: a known cytoskeletal reorganizer [reference compound]”, the “reorganization of the cytoskeleton” value in the test with NHDF cells was “triggered a dramatic reorganization of the cytoskeleton”.

For the substance “RVCSMAQGTDLIRFERNIIC (listed as Human cytomegalovirus) [gB disintegrin-like peptide, 20 amino acid synthetic peptide encompassing the HCMV gB disintegrin-like domain]”, the “MCMV infectivity after peptide treatment” value in the test on MCMV is on record as “dramatic reduction in MCMV infectivity”. The “inhibition of HCMV infectivity compared to infectivity seen with no treatment” value with HCMV strain AD169 is on record as “dose-dependent inhibitory response to infection”. Also, the “ability of HSV-1 to infect cells after peptide treatment” value with HSV-1(KOS)gL86 was “no effect”. In addition, the “HCMV attachment (binding) to host cells” value in the test on HCMV AD 169 was “no effect on HCMV attachment”. Besides, the “uptake of pp65 tegument protein” value in the test on HCMV was “little uptake of the pp65 tegument protein”.
